Experimental data as given in patent US9131690B2, “Macrocyclic picolinamides as fungicides” (Dow AgroSciences LLC, priority 2012, dated 2015).
Where two headings read alike, the source gives them in different places.

Columns and labels:
[1] = tested on: Mycosphaerella graminicola; Anamorph: Septoria tritici; experiment: Fungicidal activity: Leaf Blotch of Wheat (SEPTTR), wheat plants variety Yuma; format: in vivo; parameters: key to SEPTTR 3DC Disease Control: A: 50-100; B: More than 0-Less than 50; C: Not Tested; D: No activity noticed in this bioassay; details: for pest or weed control at 100 ppm: Zymoseptoria tritici
Procedure, shortened: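 Greenhouse wheat seedlings at first-leaf stage, 7-10 per pot, inoculated with aqueous Septoria tritici spore suspension before or after fungicide treatment. Kept at 100% relative humidity (1 day dark dew chamber, then 2-3 days lighted), then greenhouse at 20° C. for disease development.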

[2] = tested on: Puccinia triticina. Synonym: Puccinia recondite f. sp. tritici; experiment: Fungicidal activity: Wheat Brown Rust (PUCCRT), wheat plants variety Yuma; format: in vivo; details: Puccinia triticina
Procedure, shortened: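 Yuma wheat seedlings at first-leaf stage were inoculated with P. triticina spore suspension before or after fungicide treatment. Plants were held overnight at 100% relative humidity, then kept in a 24 C greenhouse for disease development.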

[3] = 24 h, 1 Day Protectant, read-out: SEPTTR 1DP Disease Control
[4] = 72 h, 3 Day Curative, read-out: SEPTTR 3DC Disease Control
[5] = 24 h, 1 Day Protectant, read-out: PUCCRT 1DP Disease Control
[6] = 72 h, 3 Day Curative, read-out: PUCCRT 3DC Disease Control

melting point [°C] | SMILES | pest or weed control at 100 ppm [1, 3] [%] | pest or weed control at 100 ppm [1, 4] [%] | pest or weed control at 100 ppm [2, 5] [%] | pest or weed control at 100 ppm [2, 6] [%] | SEPTTR 3DC Disease Control ([1]; 100 ppm, 3 Day Curative)
148 to 150 | COc1ccnc(C(=O)N[C@H]2COC(=O)[C@H](CSc3ccccn3)[C@@H](OC(=O)C(C)C)[C@H](C)OC2=O)c1O [Compound 65, (3S,6S,7R,8R)-3-(3-hydroxy-4-methoxypicolinamido)-6-methyl-4,9-dioxo-8-((pyridin-2-ylthio)methyl)-1,5-dioxonan-7-yl isobutyrate] | 50 to 100 | 0 to 50 | 50 to 100 | 0 to 50 | 
127 to 134 | COc1ccnc(C(=O)N[C@H]2COC(=O)[C@H](Cc3ccc(C(F)(F)F)cc3)[C@@H](OC(=O)C(C)C)[C@H](C)OC2=O)c1OC(C)=O [Compound 67] | 0 to 50 |  | 50 to 100 | 50 to 100 | D
199 to 200 | COc1ccnc(C(=O)N[C@H]2COC(=O)[C@H](CCOC(=O)c3ccc(C(F)(F)F)cc3)[C@@H](OC(=O)C(C)C)[C@H](C)OC2=O)c1OC(C)=O [Compound 68] | 0 to 50 | 0 to 50 | 0 to 50 | 0 to 50 | 
158 to 161 | CC[C@H]1C(=O)OC[C@H](NC(=O)c2nccc(OC)c2OC(C)=O)C(=O)O[C@@H](C)[C@@H]1OC(=O)C(C)C [Compound 69] | 50 to 100 | 50 to 100 | 50 to 100 | 50 to 100 | 
151 to 160 | COc1ccnc(C(=O)N[C@H]2COC(=O)[C@H](Cc3cccnc3)[C@@H](OC(=O)C(C)C)[C@H](C)OC2=O)c1OC(C)=O [Compound 70] | 0 to 50 | 0 to 50 | 50 to 100 | 50 to 100 | 

SMILES | melting point [°C] | pest or weed control at 100 ppm [1, 3] [%] | pest or weed control at 100 ppm [1, 4] [%] | pest or weed control at 100 ppm [2, 5] [%] | pest or weed control at 100 ppm [2, 6] [%] | SEPTTR 3DC Disease Control ([1]; 100 ppm, 3 Day Curative)
COc1ccnc(C(=O)N[C@H]2COC(=O)[C@H](CC3CCCCC3)[C@@H](OC(=O)C(C)C)[C@H](C)OC2=O)c1OC(C)=O [Compound 66, (3S,6S,7R,8R)-3-(3-acetoxy-4-methoxypicolinamido)-8-(cyclohexylmethyl)-6-methyl-4,9-dioxo-1,5-dioxonan-7-yl isobutyrate] | 164 to 170 | 50 to 100 | 50 to 100 | 50 to 100 | 50 to 100 | 
